Assay results as given in patent US20200339544A1 (JOINT STOCK COMPANY "BIOCAD", priority 2017, published 2020).
Where a name gives a salt, the structure may show the parent alone. Read-outs that look alike come from different tables or passages of the source.

Columns and labels:
[1] = Chemical stability in simulated gastric fluid (SGF); type: physicochemical; settings: SGF without enzymes, pH 1,4; 10 μm; 2 hours at 37° C.; substance amount remaining
Outline: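 Compound at 10 μm (diluted from 10 mM DMSO stock) incubated 2 h at 37° C in enzyme-free SGF, pH=1,4, or enzyme-free SIF, pH=6.5. HPLC peak areas before and after incubation give % compound remaining.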

WT EGFR (Wild-Type EGFR) = biological target: T1, WT EGFR (Wild-Type EGFR) (Homo sapiens, UniProt P00533); assay: Inhibition of WT EGFR kinase activity (ADP-Glo); type: biochemical
T1 construct: purchased SignalChem
T1 sequence (P00533 25-1210): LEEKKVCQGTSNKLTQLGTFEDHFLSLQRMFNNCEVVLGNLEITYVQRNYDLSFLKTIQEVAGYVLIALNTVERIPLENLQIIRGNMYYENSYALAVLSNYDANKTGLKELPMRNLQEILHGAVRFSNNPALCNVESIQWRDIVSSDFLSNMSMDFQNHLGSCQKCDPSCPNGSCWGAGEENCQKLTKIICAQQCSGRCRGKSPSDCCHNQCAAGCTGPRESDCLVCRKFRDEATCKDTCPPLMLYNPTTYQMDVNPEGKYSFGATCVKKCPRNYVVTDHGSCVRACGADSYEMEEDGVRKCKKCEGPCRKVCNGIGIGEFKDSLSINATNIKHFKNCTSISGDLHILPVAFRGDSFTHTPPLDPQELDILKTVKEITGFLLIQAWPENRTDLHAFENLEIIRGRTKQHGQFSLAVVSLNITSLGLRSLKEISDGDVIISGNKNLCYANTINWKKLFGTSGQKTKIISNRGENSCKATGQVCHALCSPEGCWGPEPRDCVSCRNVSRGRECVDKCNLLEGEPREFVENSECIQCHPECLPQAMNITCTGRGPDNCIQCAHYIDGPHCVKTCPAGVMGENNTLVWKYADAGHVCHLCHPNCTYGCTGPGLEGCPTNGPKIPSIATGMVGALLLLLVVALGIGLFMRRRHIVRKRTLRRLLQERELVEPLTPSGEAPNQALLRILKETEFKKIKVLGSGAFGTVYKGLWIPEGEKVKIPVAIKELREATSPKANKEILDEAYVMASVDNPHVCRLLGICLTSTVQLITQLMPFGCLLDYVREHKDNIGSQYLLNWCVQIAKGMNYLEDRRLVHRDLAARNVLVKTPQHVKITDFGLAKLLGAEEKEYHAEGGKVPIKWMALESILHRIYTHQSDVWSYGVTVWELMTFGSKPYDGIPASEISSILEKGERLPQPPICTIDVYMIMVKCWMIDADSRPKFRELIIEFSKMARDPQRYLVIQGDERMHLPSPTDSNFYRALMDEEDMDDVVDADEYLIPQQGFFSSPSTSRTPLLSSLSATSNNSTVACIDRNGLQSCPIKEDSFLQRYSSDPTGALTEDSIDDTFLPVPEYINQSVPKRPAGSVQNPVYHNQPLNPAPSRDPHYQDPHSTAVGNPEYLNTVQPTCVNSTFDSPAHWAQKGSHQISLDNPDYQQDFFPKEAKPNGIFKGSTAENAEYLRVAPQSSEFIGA
Outline: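 Luminescent ADP-Glo readout was used for both wild-type and L858R/T790M EGFR, each run 180 minutes at 37° C. Reactions used a solution of 50 μM ATP with 0.5 mg/mL peptide substrate. Four-parameter logistic curves gave IC50.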

[2] = test system: A549 (lung adenocarcinoma, WT); assay: Antiproliferative activity on A549 cells (Alamar Blue); type: cell-based; settings: Homo sapiens, antiproliferative test
Outline: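 Viability read by Alamar Blue fluorescence (λEx 540, λEm 590 nm) 3-5 h after dye addition, following 72 h compound treatment at 37° C in 2% FBS RPMI-1640, ≤1% DMSO. Seeding 5*10^3 cells/well, 16-18 h attachment. Four-parameter logistic model gave IC50.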

[3] = test system: HCC827 (lung adenocarcinoma, SM, exon19delE746-A750); assay: Antiproliferative activity on HCC827 cells (Alamar Blue); type: cell-based; settings: Homo sapiens, antiproliferative test
Outline: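 HCC827 cells (EGFR exon19del E746-A750), 10×10^3/well, attached 16–18 h, then exposed to compounds for 72 h at 37 °C in RPMI-1640 with 2% FBS, ≤1% DMSO. Viability by Alamar Blue fluorescence (ex 540/em 590 nm) after 3–5 h; IC50 by four-parameter logistic fit.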

[4] = test system: H1975 (lung adenocarcinoma, DM, L828R/T790M); assay: Antiproliferative activity on H1975 cells (Alamar Blue); type: cell-based; settings: for IC50: Homo sapiens, NCI-H1975, H1975 cells; for SI IC50(A549)/IC50(DM): selectivity index, A549 vs H1975 cells
Outline: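 IC50 was fitted with a four-parameter logistic model to Alamar Blue fluorescence (540/590 nm), read 3-5 h after dye addition. Before that, compounds acted on attached H1975 cells, 15*10^3 per well in 2% FBS RPMI-1640, for 72 h at 37 °C, DMSO no more than 1%.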

[5] = average values obtained in several tests, Table 16, read-out: H1975 (DM) IC50
[6] = antiproliferative test, Table 15, read-out: IC50 H1975 (DM)

Stability in SGF, % [1] [%]	IC50 (WT EGFR (Wild-Type EGFR)) [nM]	IC50 [2] [nM]	IC50 [3] [nM]	IC50 [4, 5] [nM]	IC50 [4, 6] [nM]	Structure (SMILES)	SI IC50(A549)/IC50(DM) [4]
100.0	211	13200	5.9	211	211	C=CC(=O)Nc1cc(Nc2nccc(C(=O)c3ccc(F)cc3)n2)c(OC)cc1N(C)CCN(C)C [EGFR_3365_10, N-(2-((2-(dimethylamino)ethyl)(methyl)amino)-5-((4-(4-fluorobenzoyl)pyrimidin-2-yl)amino)-4-methoxyphenyl) acrylamide]	62.70
100.0	154	2210	10	53.7	53.7	C=CC(=O)Nc1cc(Nc2nccc(C(=O)c3ccc(OCc4ccccc4)cc3)n2)c(OC)cc1N(C)CCN(C)C [EGFR_3365_16, N-(5-((4-(4-(benzyloxy)benzoyl)pyrimidin-2-yl)amino)-2-((2-(dimethylamino)ethyl)(methyl)amino)-4-methoxyphenyl)acrylamide]	41.10
100.0	230	5380	15.3	35.3	35.3	C=CC(=O)Nc1cc(Nc2cc(C(=O)c3ccc(N(C)C)cc3)ccn2)c(OC)cc1N(C)CCN(C)C.O=C(O)C(F)(F)F [EGFR_3365_4, N-(5-((4-(4-(dimethylamino)benzoyl)pyridin-2-yl)amino)-2-((2-(dimethylamino)ethyl) (methyl)amino)-4-methoxyphenyl)acrylamide 2,2,2-trifluoroacetate]	152.17
100.0	22.9	10800	4.27	2	5.79	C=CC(=O)Nc1cc(Nc2nccc(C(=O)c3ccc(N4CCCC4)cc3)n2)c(OC)cc1N(C)CCN(C)C [EGFR_3365_63, N-(2-((2-(dimethylamino)ethyl)(methyl)amino)-4-methoxy-5-((4-(4-(pyrrolidin-1-yl)benzoyl)pyrimidin-2-yl)amino)phenyl)acrylamide]	5383
89.9	39.7	> 10000	6.23	8.1	10.5	C=CC(=O)Nc1cc(Nc2nccc(C(=O)c3ccc(N4CCC4)cc3)n2)c(OC)cc1N(C)CCN(C)C [EGFR_3365_58, N-(5-((4-(4-(azetidin-1-yl)benzoyl)pyrimidin-2-yl)amino)-2-((2-(dimethylamino)ethyl)(methyl)amino)-4-methoxyphenyl)acrylamide]	>1235
–	32.3	5300	4.39	5	7.58	C=CC(=O)Nc1cc(Nc2nccc(C(=O)c3ccc(N4CCCCC4)cc3)n2)c(OC)cc1N(C)CCN(C)C [EGFR_3365_90, N-(2-((2-(dimethylamino)ethyl)(methyl)amino)-4-methoxy-5-((4-(4-(piperidin-1-yl)benzoyl)pyrimidin-2-yl)amino)phenyl)acrylamide]	1060
100.0	32	4920	26.9	47.5	47.5	C=CC(=O)Nc1cc(Nc2cc(C(=O)c3ccc(OCCC)cc3)ccn2)c(OC)cc1N(C)CCN(C)C [EGFR_3365_50, N-(2-((2-(dimethylamino)ethyl)(methyl)amino)-4-methoxy-5-((4-(4-propoxybenzoyl)pyridin-2-yl)amino)phenyl)acrylamide]	104
98.8	76.6	11600	20.1	211	211	C=CC(=O)Nc1cc(Nc2cc(C(=O)c3ccc(N4CCN(C)CC4)cc3)ccn2)c(OC)cc1N(C)CCN(C)C [EGFR_3365_55, N-(2-((2-(dimethylamino)ethyl)(methyl)amino)-4-methoxy-5-((4-(4-(4-methylpiperazin-1-yl)benzoyl)pyridin-2-yl)amino)phenyl)acrylamide]	55

The remaining lines, values behind:

Structure (SMILES)	Stability in SGF, % [1] [%]	IC50 (WT EGFR (Wild-Type EGFR)) [nM]	IC50 [2] [nM]	IC50 [3] [nM]	IC50 [4, 5] [nM]	IC50 [4, 6] [nM]	SI IC50(A549)/IC50(DM) [4]
C=CC(=O)Nc1cc(Nc2nccc(C(=O)c3ccc(OC)cc3OC)n2)c(OC)cc1N(C)CCN(C)C [EGFR_3365_69, N-(5-((4-(2,4-dimethoxybenzoyl)pyrimidin-2-yl)amino)-2-((2-(dimethylamino)ethyl)(methyl)amino)-4-methoxyphenyl)acrylamide]	100.0	23.6	> 10000	2.46	7.9	7.93	>1261
C=CC(=O)Nc1cc(Nc2nccc(C(=O)c3ccc(N4CCN(C)CC4)cc3)n2)c(OC)cc1N(C)CCN(C)C [EGFR_3365_62, N-(2-((2-(dimethylamino)ethyl)(methyl)amino)-4-methoxy-5-((4-(4-(4-methylpiperazin-1-yl)benzoyl)pyrimidin-2-yl)amino)phenyl)acrylamide formate]	100.0	127	12300	12.1	22.8	60.8	539
C=CC(=O)Nc1cc(Nc2cc(C(=O)c3ccccc3)ccn2)c(OC)cc1N(C)CCN(C)C [EGFR_3365_3, N-(5-((4-benzoylpyridin-2-yl)amino)-2-((2-(dimethylamino)ethyl)(methyl)amino)-4-methoxyphenyl)acrylamide]	100.0	76.6	6070	2.3	44.5	44.5	136.32
C=CC(=O)Nc1cc(Nc2nccc(C(=O)c3ccc(OCCC)cc3)n2)c(OC)cc1N(C)CCN(C)C [EGFR_3365_30, N-(2-((2-(dimethylamino)ethyl)(methyl)amino)-4-methoxy-5-((4-(4-propoxybenzoyl)pyrimidin-2-yl)amino)phenyl)acrylamide]	100.0	613	5540	2	16.4	16.4	337.72
C=CC(=O)Nc1cc(Nc2nccc(C(=O)c3ccc(OC)cc3OCCC)n2)c(OC)cc1N(C)CCN(C)C [EGFR_3365_102, N-(2-((2-(dimethylamino)ethyl)(methyl)amino)-4-methoxy-5-((4-(4-methoxy-2-propoxybenzoyl)pyrimidin-2-yl)amino)phenyl)acrylamide]	–	206	5570	–	80.5	80.5	69
C=CC(=O)Nc1cc(Nc2nccc(C(=O)c3ccc(OCCCC)cc3)n2)c(OC)cc1N(C)CCN(C)C [EGFR_3365_66, N-(5-((4-(4-butoxybenzoyl)pyrimidin-2-yl)amino)-2-((2-(dimethylamino)ethyl)(methyl)amino)-4-methoxyphenyl)acrylamide]	100.0	46.8	4640	12.8	34.7	34.7	134
C=CC(=O)Nc1cc(Nc2cc(C(=O)c3ccc(OCC)cc3)ccn2)c(OC)cc1N(C)CCN(C)C [EGFR_3365_52, N-(2-((2-(dimethylamino)ethyl)(methyl)amino)-5-((4-(4-ethoxybenzoyl)pyridin-2-yl)amino)-4-methoxyphenyl) acrylamide]	100.0	67.9	10800	22.5	66.1	66.1	164
C=CC(=O)Nc1cc(Nc2nccc(C(=O)c3cc4ccccc4n3C)n2)c(OC)cc1N(C)CCN(C)C [EGFR_3365_94, N-(2-((2-(dimethylamino)ethyl) (methyl)amino)-4-methoxy-5-((4-(1-methyl-1H-indole-2-carbonyl)pyrimidin-2-yl)amino)phenyl)acrylamide]	–	25.4	6900	–	6.65	6.65	1037
C=CC(=O)Nc1cc(Nc2nccc(C(=O)c3ccc(N4CCC(N)CC4)cc3)n2)c(OC)cc1N(C)CCN(C)C [EGFR_3365_121, N-(5-((4-(4-(4-aminopiperidin-1-yl)benzoyl)pyrimidin-2-yl)amino)-2-((2-(dimethylamino)ethyl)(methyl)amino)-4-methoxyphenyl)acrylamide]	–	21.6	8350	15.2	4.21	4.21	1983
